Values quoted from earlier work as cited in US20110244057A1, “COMBINATION THERAPIES WITH TOPIRAMATE FOR SEIZURES, RESTLESS LEGS SYNDROME, AND OTHER NEUROLOGICAL CONDITIONS” (priority 2008, published 2011).

Tests used:
kindled seizures = conditions: rats; Wauquier and Zhou, Epilepsy Res. 24:73-77, 1996
[1] = doses of 100 mg/day and 200 mg/day; Romigi et al., J. Neurology, 2007

- induction of Restless Leg Syndrome (RLS) [1]: cause RLS
SMILES: CC1(C)O[C@@H]2[C@@H](CO[C@@]3(COS(N)(=O)=O)OC(C)(C)O[C@@H]23)O1 [topiramate, 2,3:4,5-bis-O-(1-methylethyldiene)-β-D-fructopyranose sulfamate]
- effect on kindled seizures (kindled seizures): blocks kindled seizures
